The record followed here is ChEMBL document CHEMBL1141837, “New steroidal alkaloids from the roots of buxus sempervirens” (1999).

Each structure is given as a SMILES string. The source made the active and inactive calls. No cut-off for these calls is given here.

Holding throughout (format): functional
In experiment [1] the test system is Lemna minor. The experiment in a line: Phytotoxicity against Lemna minor L. at 5 ppm.
Experiment [2] concerns Lemna minor. The experiment can be described thus: Phytotoxicity against Lemna minor L. at 500 ppm.
For experiment [3], the system named is Lemna minor. The experiment in a line: Phytotoxicity against Lemna minor L. at 50 ppm.

In the case of `CN[C@H]1CC[C@]23C[C@]24CC[C@]2(C)C(=O)CC[C@@]2(C)[C@@H]4CC[C@H]3C1(C)C`, the outcome in experiment [1], in experiment [2] and in experiment [3] was inactive.
As for `CC(=O)O[C@H]1C[C@@H]2[C@H](CC[C@]3(C)[C@@H]([C@H](C)N(C)C)CC[C@@]23C)CC2=C[C@@H](O)[C@H](NC(=O)c3ccccc3)C(C)(C)[C@@H]21`, the outcome in experiment [1], in experiment [2] and in experiment [3] was inactive.
`CC(=O)O[C@H]1C[C@@H]2[C@@]3(CC4=C[C@@H](OC(C)=O)[C@H](NC(=O)c5ccccc5)C(C)(C)[C@@H]41)O[C@H]3C[C@]1(C)[C@@H]([C@H](C)N(C)C)CC[C@@]21C`: the Activity in experiment [1] is recorded as 57%; in experiment [2], 86%; in experiment [3], 71%.
With `C[C@@H]([C@H]1CC[C@@]2(C)[C@@H]3CC[C@@H]4C(=CC3=CC[C@]12C)CC[C@H](N)C4(C)C)N(C)C`, the result in experiment [1], in experiment [2] and in experiment [3] was inactive.
Consider `CC(=O)O[C@H]1C[C@@H]2[C@@]3(CC4=C[C@@H](O)[C@H](NC(=O)c5ccccc5)C(C)(C)[C@@H]41)O[C@H]3C[C@]1(C)[C@@H]([C@H](C)N(C)C)CC[C@@]21C`, for which the values for the Activity in experiment [1], in experiment [2] and in experiment [3] were 57%, 86% and 57%, respectively.
